Values of other authors in patent US5840712A, “Water soluble vitamin B12 receptor modulating agents and methods related thereto” (Receptagen Corporation, priority 1995, dated 1998).

Target: avidin (Gallus gallus, UniProt P02701)
Sequence (P02701 25-152): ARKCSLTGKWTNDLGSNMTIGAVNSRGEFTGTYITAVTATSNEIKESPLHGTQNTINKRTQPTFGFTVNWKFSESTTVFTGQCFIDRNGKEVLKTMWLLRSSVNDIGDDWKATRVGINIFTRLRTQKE

SMILES: O=C(O)CCCC[C@@H]1SC[C@@H]2NC(=O)N[C@@H]21 [biotin]
- specific binding affinity of biotin for avidin (Ka): 10^15
